According to patent publication US11319324B2, “Pyrazolo-pyrrolo-pyrimidine-dione derivatives as P2X3 inhibitors” (Bayer Aktiengesellschaft, priority 2017, dated 2022):

Key:
Type in all cases: cell-based
[1] = molecular target: T1, human P2X3 receptor (Homo sapiens, UniProt P56373); experiment: Intracellular calcium measurement, antagonist activity at human P2X3 receptors (hP2X3 1321N1), Fluo8; parameters: expressed in transfected cells; host or cells: human astrocytoma 1321N1 (1312N1 [sic]); conditions: column 3); 1321N1 cells, human P2X3, Fluo8, agonist ATP at EC50
T1 sequence (P56373 1-397): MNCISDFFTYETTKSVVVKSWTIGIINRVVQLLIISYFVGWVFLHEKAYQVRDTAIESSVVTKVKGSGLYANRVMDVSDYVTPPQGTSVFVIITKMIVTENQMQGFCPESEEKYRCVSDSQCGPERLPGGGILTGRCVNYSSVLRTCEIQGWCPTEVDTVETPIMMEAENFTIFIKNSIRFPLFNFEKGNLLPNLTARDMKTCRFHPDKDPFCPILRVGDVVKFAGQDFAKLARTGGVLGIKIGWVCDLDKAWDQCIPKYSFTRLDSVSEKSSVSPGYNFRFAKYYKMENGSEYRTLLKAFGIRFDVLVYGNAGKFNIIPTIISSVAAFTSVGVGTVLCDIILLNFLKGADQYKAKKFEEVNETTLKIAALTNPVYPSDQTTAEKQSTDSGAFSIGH
In short: (§1)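 Antagonism was assessed by decrease of the Fluo8 calcium signal after ATP challenge, with ATP dosed at the EC50 of whichever receptor was tested. Stable 1321N1 astrocytoma lines expressed either human P2X3 or both P2X2 and P2X3, and were dye-loaded 60 min before a 10 min compound incubation.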

[2] = molecular target: T1, human P2X3 receptor; experiment: Intracellular calcium measurement to assess antagonist activity at human P2X3 receptors (hP2X3 CHO), photina luminescence; parameters: expressed in transfected cells; host or cells: Chinese hamster ovary (CHO) cells; conditions: column 2), CHO cells, agonist α,β-methylene-ATP at EC50
In short: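 Antagonism read as lowered photina luminescence after agonist stimulation in recombinant hP2X3/photina CHO cells. Cells seeded one day earlier (30 °C) and reconstituted with 5 μg/ml coelenterazine in 2 mM Ca-tyrode buffer for 3 h at 37 °C before measurement.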

[3] = molecular target: T2, human P2X2/3 receptors (Homo sapiens, UniProt P56373+Q9UBL9); experiment: Intracellular calcium measurement, antagonist activity at human P2X2/3 receptors (hP2X23 1321N1), Fluo8; conditions: for IC50: column 4); 1321N1 cells, human P2X2/3, Fluo8, agonist ATP at EC50; read-out: 4) hP2X2/3 IC50 [nM] (1321N1); for hP2X23/hP2X3* Selectivity (1321N1): ratio of column 4) hP2X2/3 to column 3) hP2X3, 1321N1
T2 construct: expressed in transfected cells; host or cells: human astrocytoma 1321N1 (1312N1 [sic])
T2 sequence (P56373 1-397): T1 sequence (P56373 1-397)
T2 sequence (Q9UBL9 1-471): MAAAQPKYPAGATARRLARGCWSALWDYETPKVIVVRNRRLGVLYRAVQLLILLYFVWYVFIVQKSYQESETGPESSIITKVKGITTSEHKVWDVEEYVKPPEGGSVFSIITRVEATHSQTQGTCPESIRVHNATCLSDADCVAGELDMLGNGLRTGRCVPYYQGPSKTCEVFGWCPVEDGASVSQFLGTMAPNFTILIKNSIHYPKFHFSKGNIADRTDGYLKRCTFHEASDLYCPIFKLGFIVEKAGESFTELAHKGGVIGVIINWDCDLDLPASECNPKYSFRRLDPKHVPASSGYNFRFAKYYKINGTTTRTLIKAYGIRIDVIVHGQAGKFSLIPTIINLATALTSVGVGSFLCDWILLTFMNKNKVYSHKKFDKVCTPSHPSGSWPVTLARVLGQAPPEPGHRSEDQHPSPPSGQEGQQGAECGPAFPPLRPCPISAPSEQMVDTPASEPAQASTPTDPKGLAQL
In short: as §1

Structure (SMILES) | IC50 [1] [nM] | IC50 [2] [nM] | IC50 [3] [nM] | hP2X23/hP2X3* Selectivity (1321N1) [3]
CCc1cc2n(CC(=O)Nc3ccc(F)cn3)c3c(c(=O)n2n1)CN(C1CCN(C(=O)NC(C)C)C1)C3=O (racemic) [Example 274, (±)-3-[2-ethyl-4-{2-[(5-fluoropyridin-2-yl)amino]-2-oxoethyl}-5,8-dioxo-5,8-dihydro-4H-pyrazolo[1,5-a]pyrrolo[3,4-d]pyrimidin-6(7H)-yl]-N-(propan-2-yl)pyrrolidine-1-carboxamide] | 125 | 187 | > 32000 | >256
COC[C@H](C)N1Cc2c(n(CC(=O)Nc3ccc(F)cn3)c3cc(C(=O)NC4CC4)nn3c2=O)C1=O [Example 192] | 37 | 56 | > 19600 | >530
CCc1cc2n(CC(=O)Nc3ccc(Br)cn3)c3c(c(=O)n2n1)CN(C(C)C)C3=O [Example 67] | 217 | 185 | 6350 | 29
CC(C)N1Cc2c(n(CC(=O)Nc3ccc(F)cn3)c3cc(-c4ccncc4)nn3c2=O)C1=O [Example 149, 2-[5,8-dioxo-6-(propan-2-yl)-2-(pyridin-4-yl)-5,6,7,8-tetrahydro-4H-pyrazolo[1,5-a]pyrrolo[3,4-d]pyrimidin-4-yl]-N-(5-fluoropyridin-2-yl)acetamide] | 13 | 11 | 2110 | 169
O=C(Cn1c2c(c(=O)n3nc(Cl)cc13)CN(CCN1CCOCC1)C2=O)Nc1ccc(F)cn1 [Example 105] | 92 | 78 | > 32000 | >348
CC(C)N1Cc2c(n(CC(=O)Nc3ccc(F)cn3)c3cc(NC(=O)C4CCOCC4)nn3c2=O)C1=O [Example 284] | 47 | 57 | 9350 | 201
CCc1cc2n(CC(=O)Nc3ccc(F)cn3)c3c(c(=O)n2n1)CN(Cc1ccc(F)cc1)C3=O [Example 112] | 11 | 17 | 2550 | 232
CCc1cc2n(CC(=O)Nc3ccc(F)cn3)c3c(c(=O)n2n1)CN(CCN1CCOCC1)C3=O [Example 95] | 273 | 178 | > 22500 | >82
CC(C)N1Cc2c(n(CC(=O)Nc3ccc(F)cn3)c3cc(C4CCN(S(C)(=O)=O)C4)nn3c2=O)C1=O (racemic) [Example 270, N-(5-fluoropyridin-2-yl)-2-{2-[(±)-1-(methylsulfonyl)pyrrolidin-3-yl]-5,8-dioxo-6-(propan-2-yl)-5,6,7,8-tetrahydro-4H-pyrazolo[1,5-a]pyrrolo[3,4-d]pyrimidin-4-yl}acetamide] | 57 | 29 | 6650 | 118
CC(C)N1Cc2c(n(CC(=O)Nc3ccc(F)cn3)c3cc(C(=O)NC(C)(C)C)nn3c2=O)C1=O [Example 186] | 1850 | 124 | > 32000 | >17

The remaining compounds from weak to strong by IC50 [1], led by results:

IC50 [1] [nM] | IC50 [2] [nM] | IC50 [3] [nM] | hP2X23/hP2X3* Selectivity (1321N1) [3] | Structure (SMILES)
937 | 360 | > 32000 | >34 | CCc1cc2n(CC(=O)Nc3ccc(F)cn3)c3c(c(=O)n2n1)CN(C[C@H]1CNCCO1)C3=O [Example 247, 2-{2-ethyl-6-[(2R)-morpholin-2-ylmethyl]-5,8-dioxo-5,6,7,8-tetrahydro-4H-pyrazolo[1,5-a]pyrrolo[3,4-d]pyrimidin-4-yl}-N-(5-fluoropyridin-2-yl)acetamide]
793 | 493 | > 32000 | >40 | CCc1cc2n(CC(=O)Nc3ccc(F)cn3)c3c(c(=O)n2n1)CN(C1CCN(C)C1)C3=O (stereo not shown) [Example 253]
650 | 550 | > 32000 | >49 | CCc1cc2n(CC(=O)Nc3ccc(F)cn3)c3c(c(=O)n2n1)CN(CC1CCNC1)C3=O.Cl (stereo not shown) [Example 238]
480 | 105 | > 19800 | >41 | CCc1cc2n(CC(=O)Nc3ccc(Cl)cn3)c3c(c(=O)n2n1)CN(CC1CCOC1)C3=O (stereo not shown) [Example 60]
345 | 425 | > 21000 | >61 | CCc1cc2n(CC(=O)Nc3ccc(F)cn3)c3c(c(=O)n2n1)CN(CCN)C3=O [Example 245, 2-[6-(2-aminoethyl)-2-ethyl-5,8-dioxo-5,6,7,8-tetrahydro-4H-pyrazolo[1,5-a]pyrrolo[3,4-d]pyrimidin-4-yl]-N-(5-fluoropyridin-2-yl)acetamide]
118 | 162 | 4300 | 36 | CC(C)N1Cc2c(n(CC(=O)Nc3ccc(F)cn3)c3cc(C4CCN(C5CCC5)C4)nn3c2=O)C1=O (stereo not shown) [Example 250]
71 | 24 | 9300 | 132 | CC(C)N1Cc2c(n(CC(=O)Nc3ccc(F)cn3)c3cc(C4CCN(C(=O)OC(C)(C)C)CC4)nn3c2=O)C1=O [Example 227, tert-butyl 4-[4-{2-[(5-fluoropyridin-2-yl)amino]-2-oxoethyl}-5,8-dioxo-6-(propan-2-yl)-5,6,7,8-tetrahydro-4H-pyrazolo[1,5-a]pyrrolo[3,4-d]pyrimidin-2-yl]piperidine-1-carboxylate]
56 | 115 | > 23500 | >423 | CC(C)N1Cc2c(n(CC(=O)Nc3ccc(F)cn3)c3cc(C(C)(C)O)nn3c2=O)C1=O [Example 88]
52 | 66 | 1080 | 21 | CCc1cc2n(CC(=O)Nc3ccc(F)cn3)c3c(c(=O)n2n1)CN(C[C@H]1CN(C2CC2)CCO1)C3=O [Example 258]
39 | 22 | 3050 | 78 | CC(C)N1Cc2c(n(CC(=O)Nc3ccc(F)cn3)c3cc(C4CCN(C(=O)OC(C)(C)C)C4)nn3c2=O)C1=O (racemic) [Example 226, tert-butyl(±)-3-[4-{2-[(5-fluoropyridin-2-yl)amino]-2-oxoethyl}-5,8-dioxo-6-(propan-2-yl)-5,6,7,8-tetrahydro-4H-pyrazolo[1,5-a]pyrrolo[3,4-d]pyrimidin-2-yl]pyrrolidine-1-carboxylate]
38 | 44 | 3950 | 105 | CC(C)N1Cc2c(n(CC(=O)Nc3ccc(F)cn3)c3cc(C(=O)Nc4ccccc4F)nn3c2=O)C1=O [Example 200]
32 | 63 | 5550 | 173 | CC(C)N1Cc2c(n(CC(=O)Nc3ccc(F)cn3)c3cc(N4CCN(C)CC4)nn3c2=O)C1=O [Example 181, N-(5-fluoropyridin-2-yl)-2-[2-(4-methylpiperazin-1-yl)-5,8-dioxo-6-(propan-2-yl)-5,6,7,8-tetrahydro-4H-pyrazolo[1,5-a]pyrrolo[3,4-d]pyrimidin-4-yl]acetamide]
27 | 29 | > 32000 | >1199 | COC[C@H](C)N1Cc2c(n(CC(=O)Nc3ccc(F)cn3)c3cc(C(=O)N4CCOCC4)nn3c2=O)C1=O [Example 191]
6 | 10 | 2350 | 408 | COC[C@H](C)N1Cc2c(n(CC(=O)Nc3ccc(F)cn3)c3cc(-c4ccnc(C)c4)nn3c2=O)C1=O [Example 153]
4 | 12 | 295 | 78 | Cc1cc(C)c(-c2cc3n(CC(=O)Nc4ccc(F)cn4)c4c(c(=O)n3n2)CN(C(C)C)C4=O)cn1 [Example 156]
